Columns and labels:
pigweed [1] = assay: Test A preemergence; format: in vivo, Amaranthus retroflexus; settings: Amaranthus retroflexus, pre-emergence, 240 h, 0 to 100 scale (0 no effect, 100 complete control), read-out: Plant response rating, Pigweed; for pest or weed control at 125 g/ha: 125 g ai/ha; for pest or weed control at 500 g/ha: 500 g ai/ha, approx. 10 d
In short: (§1)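 Plant seeds in loam soil blended with sand, then apply test chemical preemergence as a directed soil spray; in parallel, spray potted seedlings (one- to two-leaf, 2 to 10 cm) postemergence. Both treatments use a non-phytotoxic solvent mixture with surfactant.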

wheat = assay: Test A postemergence; format: in vivo, Triticum aestivum; settings: Triticum aestivum, post-emergence, 240 h, 0 to 100 scale (0 no effect, 100 complete control), approx. 10 d, read-out: Plant response rating, Wheat; for plant injury at 125 g/ha: 125 g ai/ha; for plant injury at 500 g/ha: 500 g ai/ha
In short: as §1

pigweed [2] = assay: Test A postemergence; format: in vivo, Amaranthus retroflexus; settings: Amaranthus retroflexus, post-emergence, 240 h, 0 to 100 scale (0 no effect, 100 complete control), approx. 10 d, read-out: Plant response rating, Pigweed; for pest or weed control at 125 g/ha: 125 g ai/ha; for pest or weed control at 500 g/ha: 500 g ai/ha
In short: as §1

foxtail, giant [3] = assay: Test A preemergence; format: in vivo, Setaria faberii; settings: Setaria faberi, pre-emergence, 240 h, 0 to 100 scale (0 no effect, 100 complete control), read-out: Plant response rating, Foxtail, Giant; for pest or weed control at 125 g/ha: 125 g ai/ha; for pest or weed control at 500 g/ha: 500 g ai/ha, approx. 10 d
In short: as §1

barnyardgrass [4] = assay: Test A preemergence; format: in vivo, Echinochloa crus-galli; settings: Echinochloa crus-galli, pre-emergence, 240 h, 0 to 100 scale (0 no effect, 100 complete control), read-out: Plant response rating, Barnyardgrass; for pest or weed control at 125 g/ha: 125 g ai/ha; for pest or weed control at 500 g/ha: 500 g ai/ha, approx. 10 d
In short: as §1

barnyardgrass [5] = assay: Test A postemergence; format: in vivo, Echinochloa crus-galli; settings: Echinochloa crus-galli, post-emergence, 240 h, 0 to 100 scale (0 no effect, 100 complete control), approx. 10 d, read-out: Plant response rating, Barnyardgrass; for pest or weed control at 125 g/ha: 125 g ai/ha; for pest or weed control at 500 g/ha: 500 g ai/ha
In short: as §1

foxtail, giant [6] = assay: Test A postemergence; format: in vivo, Setaria faberii; settings: Setaria faberi, post-emergence, 240 h, 0 to 100 scale (0 no effect, 100 complete control), approx. 10 d, read-out: Plant response rating, Foxtail, Giant; for pest or weed control at 125 g/ha: 125 g ai/ha; for pest or weed control at 500 g/ha: 500 g ai/ha
In short: as §1

corn = assay: Test A postemergence; format: in vivo, Zea mays; settings: Zea mays, post-emergence, 240 h, 0 to 100 scale (0 no effect, 100 complete control), approx. 10 d; for Corn plant response rating (crop injury, 0 = no effect, 100 = complete kill) at 125 g/ha: 125 g ai/ha; for Corn plant response rating (crop injury, 0 = no effect, 100 = complete kill) at 500 g/ha: 500 g ai/ha
In short: as §1

rice = assay: Test B flooded paddy test; format: in vivo, Oryza sativa; settings: Oryza sativa, 360 h, 125 g ai/ha, applied to paddy water at 2-leaf stage, visual rating after 13 to 15 d, scale 0 (no effect) to 100 (complete control), read-out: Plant response rating, Rice, Flood
In short: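 Pots were flooded to 3 cm above the soil at treatment, and compounds were applied directly into the paddy water. That depth was held throughout. After 13 to 15 d in a greenhouse, plants were rated visually against untreated controls.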

SMILES | pest or weed control at 125 g/ha (pigweed [1]) [%] | pest or weed control at 500 g/ha (pigweed [1]) [%] | plant injury at 125 g/ha (wheat) [%] | plant injury at 500 g/ha (wheat) [%] | pest or weed control at 125 g/ha (pigweed [2]) [%] | pest or weed control at 500 g/ha (pigweed [2]) [%] | pest or weed control at 125 g/ha (foxtail, giant [3]) [%] | pest or weed control at 500 g/ha (foxtail, giant [3]) [%] | pest or weed control at 125 g/ha (barnyardgrass [4]) [%] | pest or weed control at 500 g/ha (barnyardgrass [4]) [%] | pest or weed control at 125 g/ha (barnyardgrass [5]) [%] | pest or weed control at 500 g/ha (barnyardgrass [5]) [%] | pest or weed control at 125 g/ha (foxtail, giant [6]) [%] | pest or weed control at 500 g/ha (foxtail, giant [6]) [%] | Corn plant response rating (crop injury, 0 = no effect, 100 = complete kill) at 125 g/ha (corn) [%] | Corn plant response rating (crop injury, 0 = no effect, 100 = complete kill) at 500 g/ha (corn) [%] | plant injury at 125 g/ha (rice) [%]
CCn1nc(-c2ccc(F)cc2)nc1C(=O)c1ccnc(C(F)(F)F)c1 [Compound 19, [1-ethyl-3-(4-fluorophenyl)-1H-1,2,4-triazol-5-yl][2-(trifluoromethyl)-4-pyridinyl]methanone] | 0 | 0 | 0 | 0 | 0 | 30 | 0 | 50 | 0 | 0 | 0 | 0 | 0 | 0 | 0 | 20 | 0
CS(=O)(=O)c1nc(-c2ccc(F)cc2)nn1Cc1ccnc(C(F)(F)F)c1 [Compound 29, 4-[[3-(4-fluorophenyl)-5-(methylsulfonyl)-1H-1,2,4-triazole-1-yl]methyl]-2-(trifluoromethyl)pyridine] | 0 | 0 | 0 | 0 | 0 | 0 | 0 | 0 | 0 | 0 | 0 | 0 | 0 | 0 | 0 | 0 | 0
CCn1nc(-c2ccc(F)cc2)nc1C(O)c1ccnc(C(F)(F)F)c1 (stereo not drawn) [Compound 15, α-[1-Ethyl-3-(4-fluorophenyl)-1H-1,2,4-triazol-5-yl]-2-(trifluoromethyl)-4-pyridinemethanol] | 0 | 0 | 0 | 0 | 10 | 70 | 0 | 20 | 0 | 0 | 0 | 10 | 0 | 10 | 0 | 10 | 0
Cn1nc(-c2ccc(F)cc2)nc1C(O)c1ccnc(C(F)(F)F)c1 (stereo not drawn) [Compound 14, α-[3-(4-fluorophenyl)-1-methyl-1H-1,2,4-triazol-5-yl]-2-(trifluoromethyl)-4-pyridinemethanol] | 90 | 100 | 10 | 30 | 60 | 90 | 30 | 90 | 0 | 10 | 10 | 20 | 20 | 30 | 10 | 20 | 0
CCCn1nc(-c2ccc(F)cc2)nc1Cc1ccnc(C(F)(F)F)c1 [Compound 17, 4-[[3-(4-fluorophenyl)-1-propyl-1H-1,2,4-triazol-5-yl]methyl]-2-(trifluoromethyl)pyridine] | 100 | 100 | 60 | 80 | 100 | 100 | 100 | 100 | 50 | 100 | 70 | 90 | 90 | 90 | 50 | 70 | 15

Source: patent US10681909B2, “Herbicidal triazoles” (FMC Corporation, priority 2014, dated 2020)
